Reference: patent publication US9150560B2, “Inhibitors of histone deacetylase” (Janssen Pharmaceutica, N.V., priority 2002, dated 2015)
Like-named read-outs stand apart in the source and are kept apart here.

Tests used:
[1] = test system: A2780 ovarian carcinoma cells; assay: Determination of antiproliferative activity on A2780 cells (MTT); assay type: cell-based, human; settings: four days of incubation; for IC50: Homo sapiens, 96 h, read-out: Cellular activity pIC50 (converted)
Protocol: Cellular activity of the compounds of formula (I) was determined on A2780 tumour cells using a colorimetric assay for cell toxicity or survival (Mosmann Tim, Journal of Immunological Methods 65: 55-63, 1983)(see example C.2).
All compounds tested were dissolved in DMSO and further dilutions were made in culture medium. Final DMSO concentrations never exceeded 0.1% (v/v) in cell proliferation assays. Controls contained A2780 cells and DMSO without compound and blanks contained DMSO but no cells. MTT was dissolved at 5 mg/ml in PBS. A glycine buffer comprised of 0.1 M glycine and 0.1 M NaCl buffered to pH 10.5 with NaOH (1 N) was prepared (all reagents were from Merck).
The human A2780 ovarian carcinoma cells (a kind gift from Dr. T. C. Hamilton [Fox Chase Cancer Centre, Pennsylvania, USA]) were cultured in RPMI 1640 medium supplemented with 2 mM L-glutamine, 50 μg/ml gentamicin and 10% fetal calf serum. Cells were routinely kept as monolayer cultures at 37° C. in a humidified 5% CO2 atmosphere. Cells were passaged once a week using a trypsin/EDTA solution at a split ratio of 1:40. All media and supplements were obtained from Life Technologies. Cells were free of mycoplasma contamination as determined using the Gen-Probe Mycoplasma Tissue Culture kit (supplier: BioMérieux).
Cells were seeded in NUNC™ 96-well culture plates (Supplier: Life Technologies) and allowed to adhere to the plastic overnight. Densities used for plating were 1500 cells per well in a total volume of 200 μl medium. After cell adhesion to the plates, medium was changed and drugs and/or solvents were added to a final volume of 200 μl. Following four days of incubation, medium was replaced by 200 μl fresh medium and cell density and viability was assessed using an MTT-based assay. To each well, 25 μl MTT solution was added and the cells were further incubated for 2 hours at 37° C. The medium was then carefully aspirated and the blue MTT-formazan product was solubilized by addition of 25 μl glycine buffer followed by 100 μl of DMSO. […] Within an experiment, the results for each experimental condition are the mean of 3 replicate wells. For initial screening purposes, compounds were tested at a single fixed concentration of 10^−6M. For active compounds, the experiments were repeated to establish full concentration-response curves. For each experiment, controls (containing no drug) and a blank incubation (containing no cells or drugs) were run in parallel. The blank value was subtracted from all control and sample values. For each sample, the mean value for cell growth (in absorbance units) was expressed as a percentage of the mean value for cell growth of the control. […] Herein the effects of test compounds are expressed as pIC50 (the negative log value of the IC50-value).

[2] = Kinetic solubility in aqueous media (nephelometry); assay type: physicochemical; settings: phosphate citrate buffer pH 7.4, turbidity of three dilution steps
Protocol: Kinetic solubility in aqueous media measures the ability of a compound to stay in aqueous solution upon dilution (see example C.3).
DMSO-stock solutions are diluted with a single aqueous buffer solvent in 3 consecutive steps. For every dilution turbidity is measured with a nephelometer.
In the first dilution step, 10 μl of a concentrated stock-solution of the active compound, solubilized in DMSO (5 mM), was added to 100 μl phosphate citrate buffer pH 7.4 and mixed. In the second dilution step, an aliquot (20 μl) of the first dilution step was further dispensed in 100 μl phosphate citrate buffer pH 7.4 and mixed. Finally, in the third dilution step, a sample (20 μl) of the second dilution step was further diluted in 100 μl phosphate citrate buffer pH 7.4 and mixed. All dilutions were performed in 96-well plates. Immediately after the last dilution step the turbidity of the three consecutive dilution steps were measured with a nephelometer. Dilution was done in triplicate for each compound to exclude occasional errors. Based on the turbidity measurements a ranking is performed into 3 classes. Compounds with high solubility obtained a score of 3 and for this compounds the first dilution is clear. Compounds with medium solubility obtained a score of 2. For these compounds the first dilution is unclear and the second dilution is clear. […] The solubility of 9 compounds was measured.

[3] = biological target: histone deacetylase (HDAC), HeLa nuclear extracts; assay: In vitro assay for inhibition of histone deacetylase; assay type: biochemical; set-up: key: pIC50 = negative log of IC50; settings: [3H]acetylated histone H4 peptide substrate, 30 min
Protocol: The in vitro assay for inhibition of histone deacetylase (see example C.1) measures the inhibition of HDAC enzymatic activity obtained with the compounds of formula (I).
HeLa nuclear extracts (supplier: Biomol) were incubated at 60 μg/ml with 2×10^−8 M of radiolabeled peptide substrate. As a substrate for measuring HDAC activity a synthetic peptide, i.e. the amino acids 14-21 of histone H4, was used. The substrate is biotinylated at the NH2-terminal part with a 6-aminohexanoic acid spacer, and is protected at the COOH-terminal part by an amide group and specifically [^3H]acetylated at lysine 16. The substrate, biotin-(6-aminohexanoic)Gly-Ala-([^3H]-acetyl-Lys-Arg-His-Arg-Lys-Val-NH2), was added in a buffer containing 25 mM Hepes, 1 M sucrose, 0.1 mg/ml BSA and 0.01% Triton X-100 at pH 7.4. After 30 min the deacetylation reaction was terminated by the addition of HCl and acetic acid. (final concentration 0.035 mM and 3.8 mM respectively). After stopping the reaction, the free ^3H-acetate was extracted with ethylacetate. After mixing and centrifugation, the radioactivity in an aliquot of the upper (organic) phase was counted in a β-counter.
For each experiment, controls (containing HeLa nuclear extract and DMSO without compound), a blank incubation (containing DMSO but no HeLa nuclear extract or compound) and samples (containing compound dissolved in DMSO and HeLa nuclear extract) were run in parallel. In first instance, compounds were tested at a concentration of 10^−5M. […] In each test the blank value was substracted from both the control and the sample values. The control sample represented 100% of substrate deactylation. For each sample the radioactivity was expressed as a percentage of the mean value of the controls. […] Herein the effects of test compounds are expressed as pIC50 (the negative log value of the IC50-value).

[4] = not given; remark: listed apart in the source

| Compound | % metabolism (human, 15 min, 5 μM) | IC50 [1] | Solubility Score [2] | Enzyme activity pIC50 [3] | melting point [4] | Cellular activity pIC50 [1] | % metabolism (15 min incubation, compound 5 μM, microsomes 1 mg/ml, NADPH-generating system) |
| --- | --- | --- | --- | --- | --- | --- | --- |
| COc1cc(N)c(Cl)cc1C(=O)NC1CCN(CCCOc2ccc(F)cc2)CC1OC (stereo not shown) [Cisapride] | 45% |  |  |  |  |  |  |
| O=C(CS)Nc1ccc(N2CCC3(CC2)C(=O)NCN3c2ccccc2)cc1 [Co. No. 1] |  | > 10000 nM | 1 (Compounds with low solubility obtained a score of 1 and for these compounds both the first and the second dilution are unclear) | <5 |  |  |  |
| CN(C)S(=O)(=O)N1CCN(c2ncc(C(=O)NO)cn2)CC1 [Co. No. 2] |  | 2920 nM | 3 (Compounds with high solubility obtained a score of 3 and for this compounds the first dilution is clear) | 6.615 | > 260 °C |  |  |
| NS(=O)(=O)N1CCN(c2ncc(C(=O)NO)cn2)CC1 [Co. No. 3] |  | > 10000 nM | 3 (Compounds with high solubility obtained a score of 3 and for this compounds the first dilution is clear) | 6.881 | 212 °C |  |  |
| CN(C)S(=O)(=O)NCC1CCN(c2ncc(C(=O)NO)cn2)CC1 [Co. No. 4] |  | 2960 nM | 3 (Compounds with high solubility obtained a score of 3 and for this compounds the first dilution is clear) | 7.27 | 182 °C |  |  |
| O=C(NO)c1cnc(N2CCN(C(=O)C(c3ccccc3)c3ccccc3)CC2)nc1 [Co. No. 5] |  | 659 nM |  | 7.096 |  |  |  |
| O=C(NO)c1cnc(N2CCN(C(=O)c3ccc4ccccc4c3)CC2)nc1 [Co. No. 6] |  | 1490 nM | 3 (Compounds with high solubility obtained a score of 3 and for this compounds the first dilution is clear) | 7.104 | 130 °C |  |  |
| CCCCCCCCS(=O)(=O)N1CCN(c2ccc(C(=O)NO)cc2)CC1 [compound 18] |  |  | 1 (Compounds with low solubility obtained a score of 1 and for these compounds both the first and the second dilution are unclear) | 6.173 |  | 6.166 |  |
| O=C(NO)c1cnc(N2CCN(C(=O)c3cccc4ccccc34)CC2)nc1 [compound 24] |  |  |  | 7.073 |  | 6.084 |  |
| CCCO [propanol] |  |  |  |  |  |  | 25% |
